{"source": "patent US20230295130A1", "about": "“COMPOUND USEFUL AS CDK7 KINASE INHIBITOR AND USE THEREOF” (TYK MEDICINES, INC., priority 2020, published 2023)", "molecular_target": "CDK7/Cyclin H/MAT1 kinase (Homo sapiens (Human), UniProt P50613)", "sequence (P50613 whole entry)": "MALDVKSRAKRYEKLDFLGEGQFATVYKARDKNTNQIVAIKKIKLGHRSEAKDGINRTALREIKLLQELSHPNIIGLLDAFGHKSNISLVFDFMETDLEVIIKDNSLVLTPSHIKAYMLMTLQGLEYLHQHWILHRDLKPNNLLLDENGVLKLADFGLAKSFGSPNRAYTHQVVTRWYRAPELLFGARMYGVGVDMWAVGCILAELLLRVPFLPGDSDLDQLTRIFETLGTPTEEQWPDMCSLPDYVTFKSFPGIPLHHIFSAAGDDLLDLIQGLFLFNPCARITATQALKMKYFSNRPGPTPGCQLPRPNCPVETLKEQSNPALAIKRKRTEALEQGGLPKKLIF", "sequence (P51946 whole entry partner)": "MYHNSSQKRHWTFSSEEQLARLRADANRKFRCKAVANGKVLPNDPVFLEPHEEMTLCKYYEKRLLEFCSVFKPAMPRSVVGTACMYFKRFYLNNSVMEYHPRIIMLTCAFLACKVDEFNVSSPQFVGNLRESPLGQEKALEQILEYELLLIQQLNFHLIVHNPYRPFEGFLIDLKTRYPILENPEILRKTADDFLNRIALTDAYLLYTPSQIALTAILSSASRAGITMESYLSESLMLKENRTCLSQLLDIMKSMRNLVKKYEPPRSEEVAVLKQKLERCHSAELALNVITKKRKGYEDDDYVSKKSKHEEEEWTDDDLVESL", "sequence (P51948 whole entry partner)": "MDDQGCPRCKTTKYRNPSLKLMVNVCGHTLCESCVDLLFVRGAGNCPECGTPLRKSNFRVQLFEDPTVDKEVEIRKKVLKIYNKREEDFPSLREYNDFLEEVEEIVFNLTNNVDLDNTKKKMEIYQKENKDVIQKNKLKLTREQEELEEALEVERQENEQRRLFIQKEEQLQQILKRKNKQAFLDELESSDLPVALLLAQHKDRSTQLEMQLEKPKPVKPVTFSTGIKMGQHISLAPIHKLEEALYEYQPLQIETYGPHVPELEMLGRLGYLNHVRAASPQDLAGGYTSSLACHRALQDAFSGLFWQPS", "assay": "Enzyme activity test, mobility shift assay (Table 1)", "format": "biochemical", "conditions": "2 mM ATP; pre-incubated 0 and 60 minutes", "experimental": "IC50 values of the compounds for CDK7 kinase were detected in Wuxi Biortus Biosciences Co. Ltd.\nThe compound powder was dissolved in 100% DMSO to prepare a 10 mM storage solution. The storage solution was further diluted to 0.5 mM as the initial concentration, and continuously diluted 3 times to obtain 10 compound solutions with different concentrations. The compound and enzyme were pre-incubated for 0 minutes and 60 minutes, respectively, using duplicate detection.\nwas used as a positive control, and Mobility shift assay method was used to detect CDK kinase (such as CDK7, CDK9, CDK12 and CDK2) activity of the compounds.", "note": "pIC50: −log10 of the molar value.", "data": [{"smiles": "COC(=O)Nc1ccc2c(-c3nc(N[C@H]4CCC[C@H](O)C4)ncc3C(F)(F)F)c[nH]c2c1Br", "note": "[Compound T-50]", "values": [{"measurement": "pIC50", "result": "< 6.30"}]}, {"smiles": "COC(=O)N(C)c1ccc2c(-c3nc(N[C@H]4CCC(C)(C)NC4)ncc3C(F)(F)F)c[nH]c2c1P(C)(C)=O", "note": "[Compound T-103]", "values": [{"measurement": "pIC50", "result": "> 7.30"}]}, {"smiles": "COC(=O)Nc1ccc2c(-c3nc(N[C@H]4CCC[C@H](O)C4)ncc3C(F)(F)F)c[nH]c2c1Br", "note": "[Example T-30]", "values": [{"measurement": "pIC50", "result": "< 6.30"}]}, {"smiles": "CN(C)C(=O)Oc1ccc2c(-c3nc(N[C@H]4CCC(C)(C)NC4)ncc3C(F)(F)F)c[nH]c2c1", "note": "[Example T-32]", "values": [{"measurement": "pIC50", "result": "6.30 to 7.30"}]}, {"smiles": "CN(C)C(=O)n1cc(-c2nc(N[C@H]3CCC(C)(C)NC3)ncc2C(F)(F)F)c2ccc(O)cc21", "note": "[Example T-33]", "values": [{"measurement": "pIC50", "result": "6.30 to 7.30"}]}, {"smiles": "COC(=O)Nc1ccc2c(-c3nc(N[C@H]4CCC5(CC5)NC4)ncc3C(F)(F)F)c[nH]c2c1OC", "note": "[Example T-38]", "values": [{"measurement": "pIC50", "result": "> 7.30"}]}, {"smiles": "COC(=O)Nc1ccc2c(-c3nc(N[C@H]4CCNC4)ncc3C(F)(F)F)c[nH]c2c1Br", "note": "[Example T-39]", "values": [{"measurement": "pIC50", "result": "6.30 to 7.30"}]}, {"smiles": "COC(=O)Nc1ccc2c(-c3nc(N[C@H]4CCCNC4)ncc3C(F)(F)F)cn(C)c2c1Br", "note": "[Example T-40]", "values": [{"measurement": "pIC50", "result": "6.30 to 7.30"}]}, {"smiles": "COC(=O)N(C)c1ccc2c(-c3nc(N[C@H]4CCCNC4)ncc3C(F)(F)F)cn(C)c2c1Br", "note": "[Example T-41]", "values": [{"measurement": "pIC50", "result": "6.30 to 7.30"}]}, {"smiles": "CCCOC(=O)Nc1ccc2c(-c3nc(N[C@H]4CCCNC4)ncc3C(F)(F)F)c[nH]c2c1Br", "note": "[Example T-45]", "values": [{"measurement": "pIC50", "result": "6.30 to 7.30"}]}, {"smiles": "O=C1OCCN1c1ccc2c(-c3nc(N[C@H]4CCNC4)ncc3C(F)(F)F)c[nH]c2c1Br", "note": "[Example T-46]", "values": [{"measurement": "pIC50", "result": "6.30 to 7.30"}]}, {"smiles": "O=C1CCCN1c1ccc2c(-c3nc(N[C@H]4CCNC4)ncc3C(F)(F)F)c[nH]c2c1Br", "note": "[Example T-47]", "values": [{"measurement": "pIC50", "result": "6.30 to 7.30"}]}, {"smiles": "O=C1OCCN1c1ccc2c(-c3nc(N[C@H]4CCCNC4)ncc3C(F)(F)F)c[nH]c2c1", "note": "[Example T-49]", "values": [{"measurement": "pIC50", "result": "> 7.30"}]}, {"smiles": "COC(=O)Nc1ccc2c(-c3nc(N[C@H]4CC[C@@H](N)C4)ncc3C(F)(F)F)c[nH]c2c1Br", "note": "[Example T-53]", "values": [{"measurement": "pIC50", "result": "< 6.30"}]}, {"smiles": "COC(=O)Nc1ccc2c(-c3nc(N[C@H]4CC[C@H](N)C4)ncc3C(F)(F)F)c[nH]c2c1Br", "note": "[Example T-54]", "values": [{"measurement": "pIC50", "result": "6.30 to 7.30"}]}, {"smiles": "COC(=O)Nc1ccc2c(-c3nc(N[C@@H]4CC[C@H](N)C4)ncc3C(F)(F)F)c[nH]c2c1Br", "note": "[Example T-55]", "values": [{"measurement": "pIC50", "result": "< 6.30"}]}, {"smiles": "COC(=O)Nc1ccc2c(-c3nc(N[C@@H]4CC[C@@H](N)C4)ncc3C(F)(F)F)c[nH]c2c1Br", "note": "[Example T-56]", "values": [{"measurement": "pIC50", "result": "6.30 to 7.30"}]}, {"smiles": "COC(=O)Nc1ccc2c(-c3nc(N[C@@H]4CCC[C@H]4N)ncc3C(F)(F)F)c[nH]c2c1Br", "note": "[Example T-57]", "values": [{"measurement": "pIC50", "result": "6.30 to 7.30"}]}, {"smiles": "COC(=O)Nc1ccc2c(-c3nc(N[C@@H]4CCC[C@@H]4N)ncc3C(F)(F)F)c[nH]c2c1Br", "note": "[Example T-58]", "values": [{"measurement": "pIC50", "result": "6.30 to 7.30"}]}, {"smiles": "COC(=O)Nc1ccc2c(-c3nc(N[C@H]4CCC[C@H]4N)ncc3C(F)(F)F)c[nH]c2c1Br", "note": "[Example T-59]", "values": [{"measurement": "pIC50", "result": "6.30 to 7.30"}]}, {"smiles": "COC(=O)Nc1ccc2c(-c3nc(N[C@@H]4CCNC4)ncc3C(F)(F)F)c[nH]c2c1Br", "note": "[Example T-61]", "values": [{"measurement": "pIC50", "result": "6.30 to 7.30"}]}, {"smiles": "COC(=O)Nc1ccc2c(-c3nc(N[C@H]4CCCNC4)ncc3Cl)c[nH]c2c1Br", "note": "[Example T-71]", "values": [{"measurement": "pIC50", "result": "> 7.30"}]}, {"smiles": "COC(=O)Nc1ccc2c(-c3nc(N[C@H]4CCC(C)(C)NC4)ncc3Cl)c[nH]c2c1Br", "note": "[Example T-72]", "values": [{"measurement": "pIC50", "result": "> 7.30"}]}, {"smiles": "COC(=O)Nc1ccc2c(-c3nc(N[C@H]4CCCNC4)ncc3C)c[nH]c2c1Br", "note": "[Example T-76]", "values": [{"measurement": "pIC50", "result": "> 7.30"}]}, {"smiles": "CCc1cnc(N[C@H]2CCCNC2)nc1-c1c[nH]c2c(Br)c(NC(=O)OC)ccc12", "note": "[Example T-77]", "values": [{"measurement": "pIC50", "result": "> 7.30"}]}, {"smiles": "COC(=O)Nc1ccc2c(-c3nc(N[C@H]4CCCNC4)ncc3C(C)C)c[nH]c2c1Br", "note": "[Example T-78]", "values": [{"measurement": "pIC50", "result": "6.30 to 7.30"}]}, {"smiles": "COC(=O)Nc1ccc2c(-c3nc(N[C@H]4CCCNC4)ncc3C(F)(F)F)c[nH]c2c1C1CCOC1", "note": "(some centres unmarked) [Example T-83]", "values": [{"measurement": "pIC50", "result": "> 7.30"}]}, {"smiles": "COC(=O)Nc1ccc2c(-c3nc(N[C@H]4CCC(C)(C)NC4)ncc3Cl)c[nH]c2c1C(F)(F)F", "note": "[Example T-87]", "values": [{"measurement": "pIC50", "result": "> 7.30"}]}, {"smiles": "COC(=O)Nc1ccc2c(-c3nc(N[C@H]4CCC(C)(C)NC4)ncc3C(F)(F)F)c[nH]c2c1SC(C)C", "note": "[Example T-89]", "values": [{"measurement": "pIC50", "result": "> 7.30"}]}, {"smiles": "C#Cc1c(NC(=O)OC)ccc2c(-c3nc(N[C@H]4CCC(C)(C)NC4)ncc3C(F)(F)F)c[nH]c12", "note": "[Example T-90]", "values": [{"measurement": "pIC50", "result": "> 7.30"}]}, {"smiles": "COC(=O)Nc1ccc2c(-c3nc(N[C@H]4CCC(C)(C)NC4)ncc3C(F)(F)F)c[nH]c2c1OC1CCCC1", "note": "[Example T-92]", "values": [{"measurement": "pIC50", "result": "6.30 to 7.30"}]}, {"smiles": "COC(=O)Nc1ccc2c(-c3nc(N[C@H]4CCC(C)(C)NC4)ncc3C(F)(F)F)c[nH]c2c1OC1CCC1", "note": "[Example T-93]", "values": [{"measurement": "pIC50", "result": "> 7.30"}]}, {"smiles": "COC(=O)Nc1ccc2c(-c3nc(N[C@H]4CCC(C)(C)NC4)ncc3C(F)(F)F)c[nH]c2c1OC(C)C", "note": "[Example T-94]", "values": [{"measurement": "pIC50", "result": "> 7.30"}]}, {"smiles": "CCOc1c(NC(=O)OC)ccc2c(-c3nc(N[C@H]4CCC(C)(C)NC4)ncc3C(F)(F)F)c[nH]c12", "note": "[Example T-95]", "values": [{"measurement": "pIC50", "result": "> 7.30"}]}, {"smiles": "COC(=O)Nc1ccc2c(-c3nc(N[C@H]4CCC(C)(C)NC4)ncc3C(F)(F)F)c[nH]c2c1CC(F)(F)F", "note": "[Example T-97]", "values": [{"measurement": "pIC50", "result": "> 7.30"}]}, {"smiles": "COC(=O)Nc1ccc2c(-c3nc(N[C@@H]4CNCC(C)(C)C4)ncc3C(F)(F)F)c[nH]c2c1C(F)(F)F", "note": "[Example T-101]", "values": [{"measurement": "pIC50", "result": "> 7.30"}]}, {"smiles": "COC(=O)Nc1ccc2c(-c3nc(N[C@H]4CCCN(C)C4)ncc3C(F)(F)F)c[nH]c2c1C(F)(F)F", "note": "[Example T-111]", "values": [{"measurement": "pIC50", "result": "> 7.30"}]}, {"smiles": "CCN[C@H]1CCC[C@@H]1Nc1ncc(C(F)(F)F)c(-c2c[nH]c3c(Br)c(NC(=O)OC)ccc23)n1", "note": "[Example T-115]", "values": [{"measurement": "pIC50", "result": "> 7.30"}]}, {"smiles": "CCN[C@H]1CCC[C@@H]1Nc1ncc(C(F)(F)F)c(-c2c[nH]c3c(C(F)(F)F)c(NC(=O)OC)ccc23)n1", "note": "[Example T-117]", "values": [{"measurement": "pIC50", "result": "> 7.30"}]}, {"smiles": "COC(=O)Nc1ccc2c(-c3nc(N[C@H]4CCCNC4)ncc3C(F)(F)F)c[nH]c2c1OC(F)F", "note": "[Example T-121]", "values": [{"measurement": "pIC50", "result": "> 7.30"}]}, {"smiles": "COC(=O)Nc1ccc2c(-c3nc(N[C@H]4CCCNC4)ncc3Cl)c[nH]c2c1OC(F)(F)F", "note": "[Example T-123]", "values": [{"measurement": "pIC50", "result": "> 7.30"}]}, {"smiles": "COC(=O)Nc1ccc2c(-c3nc(NC4CNC5CC5C4)ncc3C(F)(F)F)c[nH]c2c1Cl", "note": "(centres unmarked) [Example T-126]", "values": [{"measurement": "pIC50", "result": "> 7.30"}]}, {"smiles": "COC(=O)Nc1ccc2c(-c3nc(N[C@H]4CC=C(C)NC4)ncc3C(F)(F)F)c[nH]c2c1OC", "note": "[Example T-133]", "values": [{"measurement": "pIC50", "result": "6.30 to 7.30"}]}, {"smiles": "COC(=O)Nc1ccc2c(-c3nc(N[C@H]4CC[C@H](C)NC4)ncc3C(F)(F)F)c[nH]c2c1OC", "note": "[Example T-141]", "values": [{"measurement": "pIC50", "result": "6.30 to 7.30"}]}, {"smiles": "COC(=O)Nc1ccc2c(-c3nc(N[C@H]4CC[C@H](C)NC4)ncc3C(F)(F)F)c[nH]c2c1Br", "note": "[Example T-144]", "values": [{"measurement": "pIC50", "result": "6.30 to 7.30"}]}, {"smiles": "COC(=O)Nc1ccc2c(-c3nc(N[C@H]4CCC(C)NC4)ncc3C(F)(F)F)c[nH]c2c1Cl", "note": "(some centres unmarked) [Example T-145]", "values": [{"measurement": "pIC50", "result": "6.30 to 7.30"}]}, {"smiles": "COC(=O)Nc1ccc2c(-c3nc(N[C@H]4CC[C@H](C)NC4)ncc3C(F)(F)F)c[nH]c2c1Cl", "note": "[Example T-147]", "values": [{"measurement": "pIC50", "result": "6.30 to 7.30"}]}, {"smiles": "COC(=O)Nc1ccc2c(-c3nc(N[C@H]4CC=C(C)NC4)ncc3C(F)(F)F)c[nH]c2c1Cl", "note": "[Example T-148]", "values": [{"measurement": "pIC50", "result": "6.30 to 7.30"}]}, {"smiles": "COC(=O)Nc1ccc2c(-c3nc(N[C@H]4CC[C@H](C)NC4)ncc3C(F)(F)F)c[nH]c2c1OCC(F)(F)F", "note": "[Example T-152]", "values": [{"measurement": "pIC50", "result": "6.30 to 7.30"}]}, {"smiles": "COC(=O)Nc1ccc2c(-c3nc(N[C@H]4CCCNC4)ncc3C(F)(F)F)c[nH]c2c1C(C)(C)O", "note": "[Example T-157]", "values": [{"measurement": "pIC50", "result": "> 7.30"}]}]}
